# What was measured:
# A2BR = molecular target: T1, A2BR (Homo sapiens, UniProt P29275); experiment: A2BR potency (KB), Table 1; format: biochemical
# T1 sequence (P29275 1-332): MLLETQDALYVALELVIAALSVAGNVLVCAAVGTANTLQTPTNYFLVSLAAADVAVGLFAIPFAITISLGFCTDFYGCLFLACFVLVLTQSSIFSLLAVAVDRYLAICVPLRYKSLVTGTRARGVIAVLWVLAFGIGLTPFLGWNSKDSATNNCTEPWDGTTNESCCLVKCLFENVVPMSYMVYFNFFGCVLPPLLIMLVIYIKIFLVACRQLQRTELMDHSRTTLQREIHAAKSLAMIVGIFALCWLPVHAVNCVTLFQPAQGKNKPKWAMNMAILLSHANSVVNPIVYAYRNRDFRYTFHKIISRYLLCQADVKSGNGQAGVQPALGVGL
# A2AR = A2AR (Homo sapiens, UniProt P29274); experiment: A2AR potency (KB), Table 1; format: biochemical; details: read-out: Potency: A2AR KB (A2A)
# Sequence of A2AR (P29274 whole entry): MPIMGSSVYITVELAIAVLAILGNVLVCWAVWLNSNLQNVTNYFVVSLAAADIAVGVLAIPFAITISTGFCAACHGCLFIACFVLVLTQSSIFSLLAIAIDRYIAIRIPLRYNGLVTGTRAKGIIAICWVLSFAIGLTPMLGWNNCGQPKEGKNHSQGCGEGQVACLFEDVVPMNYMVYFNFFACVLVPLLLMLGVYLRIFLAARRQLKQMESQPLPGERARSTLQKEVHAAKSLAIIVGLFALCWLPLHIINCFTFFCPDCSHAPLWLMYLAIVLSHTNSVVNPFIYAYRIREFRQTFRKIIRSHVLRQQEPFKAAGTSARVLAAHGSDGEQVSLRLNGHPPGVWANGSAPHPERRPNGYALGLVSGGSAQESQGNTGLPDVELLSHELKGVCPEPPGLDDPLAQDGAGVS
Compound,Kb (A2BR) [nM],Kb (A2AR) [nM]
Nc1nc(-c2cn(Cc3ccn[nH]3)nn2)c2cccc(F)c2n1,< 100,< 100
COc1cccc2c(-c3cn(Cc4cc[nH]n4)nn3)nc(N)nc12,< 100,< 100
COc1cccc2c(-c3cn(Cc4ccn(C5CC5)n4)nn3)nc(N)nc12,< 100,< 100
COc1cccc2c(-c3cn(Cc4ccnn4C(C)C)nn3)nc(N)nc12,< 100,< 100
COc1cccc2c(-c3cn(Cc4ccn(C)n4)nn3)nc(N)nc12,< 100,< 100
CC(C)n1ccc(Cn2cc(-c3nc(N)nc4c(Cl)cccc34)nn2)n1,< 100,< 100
CC(C)n1nccc1Cn1cc(-c2nc(N)nc3c(Cl)cccc23)nn1,< 100,< 100
COc1c(F)ccc2c(-c3cn(Cc4ccnn4C(C)C)nn3)nc(N)nc12,< 100,< 100
COc1c(F)ccc2c(-c3cn(Cc4ccn(C(C)C)n4)nn3)nc(N)nc12,< 100,< 100
COc1cccc2c(-c3cn(Cc4ccn([C@@H]5CCOC5)n4)nn3)nc(N)nc12,< 100,< 100
COc1cccc2c(-c3cn(Cc4ccn([C@H]5CCOC5)n4)nn3)nc(N)nc12,< 100,< 100
COc1cccc2c(-c3cn(Cc4ccn(CC(C)(C)O)n4)nn3)nc(N)nc12,< 100,< 100
CC(C)n1ccc(Cn2cc(-c3cc(N)nc4c(F)cccc34)nn2)n1,< 100,< 100
COc1cccc2c(-c3cn(Cc4ccnn4CCO)nn3)nc(N)nc12,–,< 100
COc1cccc2c(-c3cn(Cc4ccn(CCO)n4)nn3)nc(N)nc12,–,< 100
COc1cccc2c(-c3cn(Cc4ccnn4CC4CCCO4)nn3)nc(N)nc12 (stereo not shown),100 to 1000,< 100
CCOc1cccc2c(-c3cn(Cc4ccn(C5CC5)n4)nn3)nc(N)nc12,100 to 1000,< 100
Nc1nc(-c2cn(Cc3ccn(C4CC4)n3)nn2)c2ccc(F)c(F)c2n1,< 100,< 100
COc1cccc2c(-c3cn(Cc4ccn(CC(=O)O)n4)nn3)nc(N)nc12,100 to 1000,100 to 1000
N#Cc1ccc2c(-c3cn(Cc4ccn(C5CC5)n4)nn3)nc(N)nc2c1,< 100,< 100
COc1cccc2c(-c3cn(Cc4ccn(CC(=O)N[C@H]5CCOC5)n4)nn3)nc(N)nc12,100 to 1000,< 100
COc1cccc2c(-c3cn(Cc4ccn(CC(=O)NCC5(O)CC5)n4)nn3)nc(N)nc12,< 100,< 100
COc1cccc2c(-c3cn(Cc4cc(C(C)(C)O)[nH]n4)nn3)nc(N)nc12,< 100,< 100
COc1cccc2c(-c3cn(Cc4ccn(C(C)C(=O)O)n4)nn3)nc(N)nc12 (stereo not shown),100 to 1000,< 100
COc1cccc2c(-c3cn(Cc4ccn(CC(=O)N[C@@H]5CCOC5)n4)nn3)nc(N)nc12,100 to 1000,< 100
COc1cccc2c(-c3cn(Cc4ccn(C(C)(C)CO)n4)nn3)nc(N)nc12,< 100,< 100
COc1ccc2c(-c3cn(Cc4ccn(C(C)(C)CO)n4)nn3)nc(N)nc2c1,< 100,< 100
COc1cccc2c(-c3cn(Cc4ccn(CC5CCOCC5)n4)nn3)nc(N)nc12,< 100,< 100

# Other lines, results leading:
Kb (A2BR) [nM],Kb (A2AR) [nM],Compound
< 100,< 100,COc1cccc2c(-c3cn(Cc4ccn(C(C)C)n4)nn3)nc(N)nc12
< 100,< 100,COc1cccc2c(-c3cn(Cc4ccn(C5CC5)n4)nn3)cc(N)nc12
< 100,< 100,COc1cccc2c(-c3cn(Cc4ccnn4C)nn3)nc(N)nc12
< 100,< 100,CCn1ccc(Cn2cc(-c3nc(N)nc4c(OC)cccc34)nn2)n1
100 to 1000,< 100,CCOc1cccc2c(-c3cn(Cc4ccn(C(C)C)n4)nn3)nc(N)nc12
< 100,< 100,CC(C)(O)Cn1ccc(Cn2cc(-c3cc(N)nc4c(F)cccc34)nn2)n1
< 100,< 100,COc1cccc2c(-c3cn(Cc4ccn(CC(N)=O)n4)nn3)nc(N)nc12
< 100,< 100,COc1cccc2c(-c3cn(Cc4ccn(CC(=O)N5CC(O)C5)n4)nn3)nc(N)nc12
100 to 1000,< 100,COc1cccc2c(-c3cn(Cc4ccn(CCN5CCCC5=O)n4)nn3)nc(N)nc12
< 100,< 100,COc1cccc2c(-c3cn(Cc4ccn(CCN5CCOCC5=O)n4)nn3)nc(N)nc12
< 100,< 100,COc1cccc2c(-c3cn(Cc4ccn(C(C)C(N)=O)n4)nn3)nc(N)nc12 (stereo not shown)
< 100,< 100,CC(C)(CO)n1ccc(Cn2cc(-c3nc(N)nc4c(F)cccc34)nn2)n1
100 to 1000,< 100,COc1c(F)ccc2c(-c3cn(Cc4ccn(C(C)(C)CO)n4)nn3)nc(N)nc12
< 100,< 100,COCC(C)(C)n1ccc(Cn2cc(-c3nc(N)nc4c(OC)cccc34)nn2)n1

# Reference: patent US11220492B2, “Quinazoline-pyrazole derivatives for the treatment of cancer-related disorders” (ARCUS BIOSCIENCES, INC., priority 2017, dated 2022)
